Like-named read-outs stand apart in the source and are kept apart here.
Tests used:
Type in all cases: cell-based
[1] = tested on: H460 non-small-cell lung cancer cell line; experiment: cells; settings: for IC50: H460, MTT, 72 h, read-out: IC50 ± S.D. H460
Experimental: (§1) The in vitro cytotoxicity of all the semisynthesized esters and their precursors against H292 and H460 human NSCLC cell lines was analyzed based on the mitochondrial dehydrogenase activity via the MTT assay[43] (Table 1). The compounds were tested at doses of 1–250 nM. Cisplatin and doxorubicin, which are the standard chemotherapeutic drugs for the treatment of NSCLC, were used as positive controls. […] However, the extended use of 1 is limited by the concerns for unwanted necrosis, which is an unprogrammed form of cell death caused by the presence of two quinone moieties. […] The IC50 values of the 5-O-ester derivatives 3a, 3b, 3d, 3h, 3i, and 3k were in the same range as the mother compound 1.
(§2) The in vitro cytotoxicity of compounds 3a–3o, 4a, and 4b was determined against the H292 and H460 NSCLC cell lines by the MTT colorimetric assay. Each compound was dissolved in DMSO to prepare a 10 mM stock solution. Both the H292 and H460 cells were cultured in RPMI 1640 medium supplemented with 2 mM L-glutamine, 10% FBS, and 100 units/mL of penicillin–streptomycin at 37 °C under 5% CO2. The NSCLC cells were trypsinized and seeded with a density of 5 × 10^3 cells/well in a 96-well plate, followed by overnight incubation. Serial dilutions of the test compounds ranging from 1 to 250 nM were prepared in the presence of DMSO (< 0.2% v/v). […] After incubation, formazan crystals were solubilized by adding 100 µL of DMSO, and their absorbance was measured at 570 nm by a spectrophotometric microtiter plate reader (PerkinElmer Victor 3 1420 Multilabel Plate Counter). Cell viability was calculated as the percentage of nontreated control cells. The mean IC50 values were obtained from three independent experiments. Each experiment was conducted in triplicate with at least five concentrations of the tested compounds. The GraphPad Prism software (version 5) was used to calculate the average IC50 and standard deviation (S.D.) values for each experiment. Cisplatin and doxorubicin were used as the positive controls, while 0.2% DMSO served as the negative control.

[2] = tested on: H292 non-small-cell lung cancer cell line; experiment: cells; settings: for IC50: H292, MTT, 72 h, read-out: IC50 ± S.D. H292
Experimental: as §1, §2

[3] = tested on: non-tumorigenic bronchial epithelial (BEAS-2B) cell line; experiment: MTT cell viability on normal cell line BEAS-2B; settings: BEAS-2B normal cell line, 24 h, read-out: IC50 ± S.D. BEAS-2B
Experimental: (§3) DP and BEAS-2B were seeded into 96-well plates at densities of 1 × 10^4 cells per well, while HaCaT cells were seeded at densities of 5 × 10^3 cells per well. The cells were allowed to adhere for 24 h. Subsequently, the cells were treated with various concentrations of compounds 3a–3o, 4a, and 4b at 72 h for DP cells and at 24 h for HaCaT and BEAS-2B cells. After the treatment period, cells were incubated with 0.5 mg/ml of MTT for 2 h. The resulting MTT product was measured at 570 nm using a spectrophotometric microplate reader. Cell viability was calculated by comparing the optical density (OD) measurements to those of the untreated control, and the results were expressed as a percentage.

[4] = tested on: dermal papilla (DP) cell line; experiment: MTT cell viability on normal cell line DP; settings: 72 h
Experimental: as §3

[5] = tested on: human keratinocyte (HaCaT) cell line; experiment: MTT cell viability on normal cell line HaCaT; settings: 24 h, read-out: IC50 ± S.D. HaCaT
Experimental: as §3

Row | Structure (SMILES) | IC50 ([1]; Homo sapiens, NCI-H460) [nM] | IC50 ([2]; Homo sapiens, NCI-H292) [nM] | IC50 ([3]; Homo sapiens) [nM] | IC50 [4] [nM] | IC50 ([5]; Homo sapiens) [nM] | IC50 [1] [nM] | IC50 [2] [nM] | IC50 [3] [nM] | IC50 [5] [nM] | Reduction in cytotoxicity against H460 [1] | Reduction in cytotoxicity against H292 [2] [fold]
1 | C/C=C(/C)C(=O)OC[C@H]1c2c(c(OC(=O)[C@@H](NC(=O)OC(C)(C)C)C(C)C)c(C)c3c2OCO3)C[C@H]2[C@H]3C4=C(C[C@@H]([C@H](C#N)N12)N3C)C(=O)C(C)=C(OC)C4=O [Compound 3e] | 76.1 ± 2.77 | 89.6 ± 5.03 | > 250 | 50 ± 1.49 | 80.2 ± 4.1 | – | – | – | – | – | –
2 | C/C=C(/C)C(=O)OC[C@H]1c2c(c(OC(=O)c3cnc4ccccc4c3)c(C)c3c2OCO3)C[C@H]2[C@H]3C4=C(C[C@@H]([C@H](C#N)N12)N3C)C(=O)C(C)=C(OC)C4=O [Compound 3j, 5-O-(3-quinolinecarbonyl) ester] | 86.1 ± 6.34 | 77.8 ± 5.79 | > 250 | 37.6 ± 0.47 | 109 ± 7.38 | – | – | – | – | – | –
3 | CC=C(C)C(=O)OCC1c2c(c(OC(C)=O)c(C)c3c2OCO3)CC2C3C4=C(CC(C(C#N)N12)N3C)C(=O)C(C)=C(OC)C4=O (stereo not drawn) [Compound 3a, 5-O-acetyl renieramycin T] | 35.7 ± 2.11 | 43.4 ± 3 | > 250 | 11.7 ± 0.59 | 9.49 ± 2.12 | – | – | – | – | – | –
4 | N.N.[Cl][Pt][Cl] [Cisplatin, reference compound] | – | – | – | 10800 | – | 3860 | 4230 | > 20000 | 14300 | – | –
5 | C/C=C(/C)C(=O)OC[C@H]1c2c(c(OC(=O)c3cccs3)c(C)c3c2OCO3)C[C@H]2[C@H]3C4=C(C[C@@H]([C@H](C#N)N12)N3C)C(=O)C(C)=C(OC)C4=O [Compound 3n, 5-O-(2-thiophenecarbonyl) ester] | 123 ± 4.99 | 137 ± 6.3 | > 250 | 68.6 ± 6.25 | 139 ± 6.16 | – | – | – | – | – | –
6 | C/C=C(/C)C(=O)OC[C@H]1c2c(c(OC(=O)c3c[nH]c4ccccc34)c(C)c3c2OCO3)C[C@H]2[C@H]3C4=C(C[C@@H]([C@H](C#N)N12)N3C)C(=O)C(C)=C(OC)C4=O [Compound 3l] | 57.9 ± 0.77 | 69.4 ± 1.61 | > 250 | 72.1 ± 3.01 | 109 ± 6.99 | – | – | – | – | – | –
7 | C/C=C(/C)C(=O)OC[C@H]1c2c(c(OC(=O)CNC(=O)OC(C)(C)C)c(C)c3c2OCO3)C[C@H]2[C@H]3C4=C(C[C@@H]([C@H](C#N)N12)N3C)C(=O)C(C)=C(OC)C4=O [Compound 3c] | 41.6 ± 4.15 | 39 ± 5.63 | > 250 | 5.35 ± 0.27 | 23.1 ± 1.38 | – | – | – | – | – | –
8 | C/C=C(/C)C(=O)OC[C@H]1c2c(c(OC(=O)c3ccncc3)c(C)c3c2OCO3)C[C@H]2[C@H]3C4=C(C[C@@H]([C@H](C#N)N12)N3C)C(=O)C(C)=C(OC)C4=O [Compound 3h] | 35.6 ± 1.64 | 35.3 ± 1.09 | 223 ± 23.1 | 4.83 ± 2.18 | 53.8 ± 7.07 | – | – | – | – | – | –
9 | C/C=C(/C)C(=O)OC[C@H]1c2c(c(OC(=O)/C=C/c3cccnc3)c(C)c3c2OCO3)C[C@H]2[C@H]3C4=C(C[C@@H]([C@H](C#N)N12)N3C)C(=O)C(C)=C(OC)C4=O [Compound 3k] | 38.8 ± 7.25 | 36.3 ± 2.06 | 114 ± 13.2 | 8.36 ± 2.31 | 9.64 ± 0.93 | – | – | – | – | – | –
10 | COc1cccc2c1C(=O)c1c(O)c3c(c(O)c1C2=O)C[C@@](O)(C(=O)CO)C[C@@H]3O[C@H]1C[C@H](N)[C@H](O)[C@H](C)O1 [Doxorubicin, reference compound] | 43.9 ± 6.26 | 40.8 ± 6.89 | 663 | 58 ± 24.4 | 915 ± 50.2 | – | – | – | – | – | –
11 | C/C=C(/C)C(=O)OC[C@H]1C2=C(C[C@H]3[C@H]4C5=C(C[C@@H]([C@H](C#N)N13)N4C)C(=O)C(C)=C(OC)C5=O)C(=O)C(C)=C(OC(=O)CC)C2=O [Compound 4a, 7-O-(propanoyl) ester derivative of renieramycin S] | 164 ± 4.16 | 99.87 ± 0.91 | > 250 | 77.4 ± 9.9 | 230 ± 22.7 | – | – | – | – | fivefold | 3
12 | C/C=C(/C)C(=O)OC[C@H]1c2c(c(OC(=O)c3ccco3)c(C)c3c2OCO3)C[C@H]2[C@H]3C4=C(C[C@@H]([C@H](C#N)N12)N3C)C(=O)C(C)=C(OC)C4=O [Compound 3m] | 42.9 ± 5.21 | 42.5 ± 3.84 | > 250 | 25.29 ± 0.24 | 42.1 ± 3.13 | – | – | – | – | – | –
13 | C/C=C(/C)C(=O)OC[C@H]1c2c(c(OC(=O)[C@H](Cc3ccccc3)NC(=O)OC(C)(C)C)c(C)c3c2OCO3)C[C@H]2[C@H]3C4=C(C[C@@H]([C@H](C#N)N12)N3C)C(=O)C(C)=C(OC)C4=O [Compound 3f] | 50.7 ± 3.5 | 54.1 ± 4.78 | 181 ± 12.1 | 39.8 ± 9.88 | 61.2 ± 3.43 | – | – | – | – | – | –
14 | CC=C(C)C(=O)OCC1c2c(c(O)c(C)c3c2OCO3)CC2C3C4=C(CC(C(C#N)N12)N3C)C(=O)C(C)=C(OC)C4=O (stereo not drawn) [Compound 2, renieramycin T] | 84 ± 3.63 | 72.8 ± 2.88 | 163 ± 24.2 | 51 ± 0.08 | 89.2 ± 4.29 | – | – | – | – | – | –
15 | C/C=C(/C)C(=O)OC[C@H]1c2c(c(OC(=O)c3ccccn3)c(C)c3c2OCO3)C[C@H]2[C@H]3C4=C(C[C@@H]([C@H](C#N)N12)N3C)C(=O)C(C)=C(OC)C4=O [Compound 3g] | 43.6 ± 1.36 | 51.5 ± 1.67 | > 250 | 35.2 ± 4.13 | 74.3 ± 6.88 | – | – | – | – | – | –
16 | C/C=C(/C)C(=O)OC[C@H]1c2c(c(OC(=O)[C@H](C)NC(=O)OC(C)(C)C)c(C)c3c2OCO3)C[C@H]2[C@H]3C4=C(C[C@@H]([C@H](C#N)N12)N3C)C(=O)C(C)=C(OC)C4=O [Compound 3d, 5-O-(N-Boc-L-alanine)-renieramycin T] | 33 ± 1.55 | 39.5 ± 1.18 | 232 ± 26.1 | 25.8 ± 1.05 | 58.5 ± 6.68 | – | – | – | – | – | –
17 | C/C=C(/C)C(=O)OC[C@H]1C2=C(C[C@H]3[C@H]4C5=C(C[C@@H]([C@H](C#N)N13)N4C)C(=O)C(C)=C(OC)C5=O)C(=O)C(C)=C(OC(=O)c1cccnc1)C2=O [Compound 4b, 7-O-(3-pyridinecarbonyl) ester derivative of renieramycin S] | 104 ± 2.2 | 100 ± 1.59 | > 250 | 67.5 ± 5.46 | 192 ± 22.2 | – | – | – | – | fivefold | 3
18 | C/C=C(/C)C(=O)OC[C@H]1c2c(c(OC(=O)c3ccc[nH]3)c(C)c3c2OCO3)C[C@H]2[C@H]3C4=C(C[C@@H]([C@H](C#N)N12)N3C)C(=O)C(C)=C(OC)C4=O [Compound 3o] | 58.3 ± 3.56 | 56.9 ± 2.66 | 220 ± 29.7 | 50 ± 7.81 | 65.2 ± 1.52 | – | – | – | – | – | –
19 | C/C=C(/C)C(=O)OC[C@H]1c2c(c(OC(=O)c3ccc4ccccc4n3)c(C)c3c2OCO3)C[C@H]2[C@H]3C4=C(C[C@@H]([C@H](C#N)N12)N3C)C(=O)C(C)=C(OC)C4=O [Compound 3i, 5-O-(2-quinolinecarbonyl) ester] | 43.3 ± 4.29 | 36.5 ± 1.82 | 151 ± 19 | 8.77 ± 1.94 | 28 ± 3.76 | – | – | – | – | – | –

From PMC10700347, “Semisynthesis of 5-O-ester derivatives of renieramycin T and their cytotoxicity against non-small-cell lung cancer cell lines” (Scientific Reports, 2023)
